Holding throughout (assay): NCI tumour cell line growth inhibition, 48 h
For assay [1], the system named is 786-0 renal.
The subject of assay [2] is A498 renal.
The test system of assay [3] is A549 NSCLC.
The subject of assay [4] is ACHN renal.
Assay [5] concerns BT-549 breast.
Assay [6] has as its system CAKI-1 renal.
Assay [7] relates to CCRF-CEM leukemia.
Assay [8] concerns COLO 205 colon.
Assay [9] concerns DU-145 prostate.
The subject of assay [10] is EKVX NSCLC.
Assay [11] relates to HCC-2998 colon.
Assay [12] concerns HCT-116 colon.
Assay [13] relates to HCT-15 colon.
Assay [14] deals with HL-60(TB) leukemia.
The subject of assay [15] is HOP-62 NSCLC.
In assay [16] the test system is HOP-92 NSCLC.
The subject of assay [17] is HS 578T breast.
Assay [18] concerns HT29 colon.
In assay [19] the test system is IGROV1 ovarian.
In assay [20] the test system is K-562 leukemia.
Assay [21] has as its system KM12 colon.
Assay [22] relates to LOX IMVI melanoma.
For assay [23], the system named is M14 melanoma.
Assay [24] relates to MALME-3M melanoma.
Assay [25] deals with MCF7 breast.
For assay [26], the system named is MDA-MB-231 breast.
Assay [27] deals with MDA-MB-435.
Assay [28] has as its system MDA-MB-468 breast.
The subject of assay [29] is MOLT-4 leukemia.
For assay [30], the system named is NCI-H226 lung.
Assay [31] deals with NCI-H23 lung.
For assay [32], the system named is NCI-H460 lung.
Assay [33] concerns NCI-H522 lung.
In assay [34] the test system is NCI/ADR-RES ovarian.
Assay [35] concerns OVCAR-3 ovarian.
The test system of assay [36] is OVCAR-4 ovarian.
The test system of assay [37] is OVCAR-5 ovarian.
Assay [38] has as its system OVCAR-8 ovarian.
Assay [39] has as its system PC-3 prostate.
Assay [40] deals with RPMI-8226 leukemia.
Assay [41] has as its system RXF 393 renal.
The subject of assay [42] is SF-268 CNS.
Assay [43] concerns SF-295 CNS.
For assay [44], the system named is SF-539 CNS.
The test system of assay [45] is SK-MEL-2 melanoma.
For assay [46], the system named is SK-MEL-28 melanoma.
Assay [47] has as its system SK-MEL-5 melanoma.
Assay [48] has as its system SK-OV-3 ovarian.
Assay [49] concerns SN12C renal.
Assay [50] has as its system SNB-19 CNS.
Assay [51] has as its system SNB-75 CNS.
The test system of assay [52] is SR leukemia.
Assay [53] deals with SW-620 colon.
Assay [54] relates to T-47D breast.
Assay [55] has as its system TK-10 renal.
Assay [56] has as its system U251 CNS.
Assay [57] concerns UACC-257 melanoma.
Assay [58] deals with UACC-62 melanoma.
Assay [59] has as its system UO-31 renal.

Molecules are shown by their SMILES.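 Results reflect a 48-hour exposure of cells in 96-well plates to compound at five concentrations. Abbreviation: GI50, concentration required for 50% inhibition of growth. TGI denotes the concentration required for complete inhibition of growth.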

On to `NS(=O)(=O)c1ccc(NC(=O)CSc2ccc(-c3ccc(Cl)cc3)nn2)c(Br)c1`, for which the GI50 in assay [1] was 11.3 µM; in assay [2] it was 14 µM; in [3] it was 11.7 µM; in assay [4], 6.92 µM; in assay [5], 14.1 µM; in assay [6], 11 µM. Also, the GI50 in assay [7] was more than 100 µM; in assay [8], 20.7 µM; in [9], 12.1 µM; in [10], 11 µM; in assay [11], 11 µM; in assay [12], 10.3 µM. For the same compound, the GI50 is 11.8 µM in [13]; 50.9 µM in assay [14]; 2.93 µM in assay [15]; 3.96 µM in assay [16]; 2.8 µM in [17]; 15.9 µM in assay [18]. The GI50 in assay [19] was 23.3 µM; in assay [20] it was 20.4 µM; in assay [21] it was 36.3 µM; in [22], 10.4 µM; in assay [23], 32.4 µM; in assay [24], 9.36 µM. Further, the GI50 in assay [25] is 10.1 µM; in assay [26], 3.7 µM; in [27], 32.6 µM; in [28] it was 8.32 µM; in assay [29], 48.3 µM; in assay [30], 2.62 µM. In addition, the GI50 in assay [31] was 11.1 µM; in assay [32] it was 7.22 µM; in assay [33] it was 10.5 µM; in assay [34], 7.75 µM; in [35] it was 12.9 µM; in assay [36], 10.4 µM. Moreover, the GI50 was 17.2 µM in assay [37]; 10.3 µM in assay [38]; 8.97 µM in assay [39]; 96.9 µM in [40]; 2.99 µM in assay [41]; 7.22 µM in assay [42]. Also, the GI50 in [43] was 5.13 µM; in assay [44], 4.15 µM; in assay [45], 15.8 µM; in assay [46], 12.3 µM; in [47], 10.2 µM; in assay [48], 4.39 µM. Besides, the GI50 was 26.1 µM in assay [49]; 3.75 µM in assay [50]; 1.79 µM in assay [51]; 50.5 µM in assay [52]; 32.8 µM in [53]; 4.59 µM in [54]. Further, the GI50 in [55] is 18 µM; in [56], 5.15 µM; in assay [57], 31.4 µM; in [58], 13.7 µM; in [59], 29.5 µM. The TGI was found to be 25.6 µM in [1]; 28 µM in assay [2]; 31.8 µM in assay [3]; 19.6 µM in [4]; 44.3 µM in assay [5]; 24.4 µM in [6]. Besides, the TGI is more than 100 µM in assay [7]; 65.5 µM in assay [8]; 27.2 µM in [9]; 25.8 µM in assay [10]; 40.4 µM in assay [11]; 29.6 µM in assay [12]. The TGI in assay [13] is 25.8 µM; in [14] it was more than 100 µM; in assay [15], 10.8 µM; in assay [16], 19.2 µM; in assay [17], 12.4 µM; in [18], 46.8 µM. Further, the TGI in assay [19] was 76.4 µM; in [20], more than 100 µM; in assay [21], more than 100 µM; in [22], 24.2 µM; in assay [23], more than 100 µM; in assay [24], 22.4 µM. The TGI was 25.3 µM in assay [25]; 14.6 µM in [26]; more than 100 µM in [27]; 25 µM in assay [28]; more than 100 µM in [29]; 9.4 µM in assay [30]. Besides, the TGI in [31] was 23.2 µM; in assay [32], 22.3 µM; in assay [33], 26.3 µM; in assay [34], more than 100 µM; in assay [35] it was 27.6 µM; in [36], 42.6 µM. Moreover, the TGI in [37] is 51 µM; in assay [38], 24.7 µM; in [39], 49.2 µM; in assay [40] it was more than 100 µM; in assay [41] it was 13.8 µM; in assay [42] it was 34.4 µM. The TGI was determined as 16.1 µM in [43]; 15.8 µM in assay [44]; 32 µM in assay [45]; 28.8 µM in [46]; 21.9 µM in [47]; 15.1 µM in assay [48]. For the same compound, the TGI in assay [49] is 83.3 µM; in assay [50], 14.9 µM; in assay [51], 15 µM; in [52], more than 100 µM; in assay [53] it was more than 100 µM; in assay [54] it was 21.8 µM. In addition, the TGI was 38.9 µM in assay [55]; 21.7 µM in [56]; more than 100 µM in assay [57]; 34.1 µM in [58]; more than 100 µM in assay [59].
On to `COc1ccc2c(c1)C(C)Cc1c(ncnc1-n1c(C)nc3ccccc31)N2C` (centres undefined), for which, in assay [28], the GI50 was 3.05 µM and the TGI is 20.5 µM.
In the case of `COCCOc1cnc2ccn([C@H](C)c3nnc4c(F)cc(-c5cnn(C)c5)cn34)c(=O)c2c1`, in assay [28], the GI50 is more than 100 µM and the TGI is more than 100 µM.
Turning to `CC(=O)O[C@H](C[C@H](C(C)C)N(C)C(=O)[C@@H](NC(=O)[C@H]1CCCCN1C)C(C)C)c1nc(C(=O)N[C@@H](Cc2ccccc2)C[C@H](C)C(=O)O)c(CCOCc2ccccc2)s1`, in assay [28], the GI50 was less than 0.001 µM and the TGI is more than 10 µM.
For `C[C@]12CC[C@@H]3c4ccc(O)cc4CC[C@H]3[C@@H]1CC[C@@H]2NS(=O)(=O)c1cccc(F)c1`, in [28], the GI50 was 2.42 µM and the TGI was found to be 9.25 µM.
The corresponding values for `O=C(Nc1ccc(-n2cc(-c3ccncc3)c(-c3ccc(Cl)c(O)c3)n2)cc1)Nc1ccc(Cl)c(C(F)(F)F)c1` are 1.46 µM and 3.4 µM.
Consider `COc1ccc(-c2oc3cc(O)c(OC)c(O)c3c(=O)c2OC)cc1O`, for which, in [28], the GI50 was 0.312 µM and the TGI is 4.14 µM.
On the same counts, the results for `NC(CS/C(Cl)=C/Cl)C(=O)O` (centres undefined) are 2.99 µM and 16.7 µM.
The corresponding values for `COc1cc2ncn(-c3cc(OCCc4ccccc4)c(C(N)=O)s3)c2cc1OC` are 3.35 µM and 24.2 µM.

The values are drawn from PubChem BioAssay (NCI).
